Laboratory results as given in patent publication US20100298252A1, “METHODS AND COMPOSITIONS FOR OPHTHALMIC TREATMENT OF FUNGAL AND BACTERIAL INFECTIONS” (priority 2004, published 2010).

How the values were obtained:
[1] = system: Aspergillus sp.; assay: Antifungal MIC 50 / MIC 90 alone and combined with Tricide; assay type: cell-based; details: for % decrease MIC 50 / % decrease MIC 90 / MIC 50 combined with Tricide / MIC 90 combined with Tricide: Aspergillus sp.; for MIC50 / MIC90: Aspergillus, antifungal alone; for MIC50 / MIC90 / Summary % reduction in MIC 50 using Tricide / Summary % reduction in MIC 90 using Tricide: Aspergiullus sp.
[2] = system: Candidia albicans ATCC 90028; assay: as above; assay type: cell-based, Candida albicans; details: for MIC50 / MIC90: ATCC90028, antifungal alone; for MIC50 / MIC90 / Summary % reduction in MIC 50 using Tricide / Summary % reduction in MIC 90 using Tricide: Candidia albicans ATCC 90028;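 for all read-outs here: MIC 50 and MIC 90 values are means, and the percent decrease is the drop in MIC when the antifungal is combined with Tricide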
[3] = system: Fusarium sp. 2; assay: microbe, parasite or virus in culture; assay type: cell-based; details: for MIC50 / MIC90: antifungal alone
[4] = system: Fusarium sp. 1; assay: microbe, parasite or virus in culture; assay type: cell-based; details: for Summary % reduction in MIC 50 using Tricide / Summary % reduction in MIC 90 using Tricide: Fasarium sp. 1; for MIC50 / MIC90: antifungal alone;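 for all read-outs here: mean MIC 50 and MIC 90 values against fungal isolates, with percent decrease in MIC when the antifungal is combined with Tricide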
[5] = system: Cladosporium sp.; assay: Antifungal MIC 50 / MIC 90 alone and combined with Tricide; assay type: cell-based; details: for MIC50 / MIC90: antifungal alone
[6] = system: Curvularia sp.; assay: as above; assay type: cell-based; details: for Summary % reduction in MIC 50 using Tricide / Summary % reduction in MIC 90 using Tricide / MIC50 / MIC90: Curvularia sp.; for MIC50 / MIC90: antifungal alone;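 for all read-outs here: antifungal MIC 50 and MIC 90 values against fungal isolates, with percent figures expressing how much the MIC fell once Tricide was added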
[7] = system: Paecilomyces variotti ATCC 36257; assay: as above; assay type: cell-based; details: for MIC50 / MIC90: ATCC36257, Paecilomyces variotti ATCC 36257, antifungal alone; for MIC50: read-out: MIC 50; for MIC90: read-out: MIC 90; for Summary % reduction in MIC 50 using Tricide / Summary % reduction in MIC 90 using Tricide: Paecilomyces variotti ATCC36257; for % decrease MIC 50 / % decrease MIC 90 / MIC 50 combined with Tricide / MIC 90 combined with Tricide: Paecilomyces variotti, Tricide […]
[8] = system: Fusarium sp. 3; assay: microbe, parasite or virus in culture; assay type: cell-based; details: for % decrease MIC 50 / % decrease MIC 90 / MIC 50 combined with Tricide / MIC 90 combined with Tricide: Tricide 540 ug/ml; for MIC50 / MIC90: antifungal alone
[9] = system: Penicillium sp.; assay: Antifungal MIC 50 / MIC 90 alone and combined with Tricide; assay type: cell-based; details: for % decrease MIC 50 / % decrease MIC 90 / MIC 50 combined with Tricide / MIC 90 combined with Tricide: Tricide 200 ug/ml; for MIC50 / MIC90: antifungal alone
[10] = Fusarium sp. 1, Tricide 540 ug/ml
[11] = Curvilaria sp., Tricide 200 ug/ml

Compound: C[C@@H]1C/C=C/C=C/C=C/C=C/[C@H](O[C@@H]2O[C@H](C)[C@@H](O)[C@H](N)[C@@H]2O)C[C@@H]2O[C@](O)(C[C@@H](O)C[C@H]3O[C@@H]3/C=C/C(=O)O1)C[C@H](O)[C@H]2C(=O)O [Natamycin, natamycin]
- % decrease MIC 50 ([1]; Tricide 200 ug/ml): 93.8%
- % decrease MIC 90 ([1]; Tricide 200 ug/ml): 0%
- MIC 50 combined with Tricide ([1]; Tricide 200 ug/ml): 1.2 µg/mL
- MIC 90 combined with Tricide ([1]; Tricide 200 ug/ml): >19.2 µg/mL
- % decrease MIC 50 ([1]; Tricide 400 ug/ml): 100%
- % decrease MIC 90 ([1]; Tricide 400 ug/ml): 100%
- MIC 50 combined with Tricide ([1]; Tricide 400 ug/ml): 0 µg/mL
- MIC 90 combined with Tricide ([1]; Tricide 400 ug/ml): 0 µg/mL
- MIC50 [1]: > 19.2 µg/mL
- MIC90 [1]: 19.2 µg/mL
- Summary % reduction in MIC 50 using Tricide [1]: 100%
- Summary % reduction in MIC 90 using Tricide [1]: 100%
- MIC50 ([2]; Candida albicans): > 14.4 µg/mL
- MIC90 ([2]; Candida albicans): > 19.2 µg/mL
- % decrease MIC 50 ([2]; Candida albicans, Tricide […]): 99.3%
- % decrease MIC 90 ([2]; Candida albicans, Tricide […]): 90%
- MIC 50 combined with Tricide ([2]; Candida albicans, Tricide […]): ≦0.10 ug/ml
- MIC 90 combined with Tricide ([2]; Candida albicans, Tricide […]): 4.92 µg/mL
- Summary % reduction in MIC 50 using Tricide [2]: 99.3%
- Summary % reduction in MIC 90 using Tricide [2]: 90%
- Summary % reduction in MIC 50 using Tricide [3]: 100%
- Summary % reduction in MIC 90 using Tricide [3]: >99%-100%
- % decrease MIC 50 ([3]; Tricide 540 ug/ml): 100%
- % decrease MIC 90 ([3]; Tricide 540 ug/ml): >99-100% ^
- MIC 50 combined with Tricide ([3]; Tricide 540 ug/ml): 0 µg/mL
- MIC 90 combined with Tricide ([3]; Tricide 540 ug/ml): 0 to 1.92 µg/mL
- MIC50 [3]: > 19.2 µg/mL
- MIC90 [3]: > 19.2 µg/mL
- Summary % reduction in MIC 50 using Tricide [4]: 100%
- Summary % reduction in MIC 90 using Tricide [4]: 100%
- % decrease MIC 50 [4, 10]: 100%
- % decrease MIC 90 [4, 10]: 100%
- MIC 50 combined with Tricide [4, 10]: 0 µg/mL
- MIC 90 combined with Tricide [4, 10]: 0 µg/mL
- MIC50 ([4]; Fusarium sp. 1): > 19.2 µg/mL
- MIC90 ([4]; Fusarium sp. 1): > 19.2 µg/mL
- MIC50 [5]: > 19.2 µg/mL
- MIC90 [5]: > 19.2 µg/mL
- % decrease MIC 50 [6, 11]: 100%
- % decrease MIC 90 [6, 11]: 100%
- MIC 50 combined with Tricide [6, 11]: 0 µg/mL
- Summary % reduction in MIC 50 using Tricide [6]: 100%
- Summary % reduction in MIC 90 using Tricide [6]: 100%
- MIC50 [6]: 9.6 µg/mL
- MIC90 [6]: 19.2 µg/mL
- MIC50 [7]: 2.4 to 4.8 µg/mL
- MIC90 [7]: 9.6 µg/mL
- Summary % reduction in MIC 50 using Tricide [7]: 75-87.5%^
- Summary % reduction in MIC 90 using Tricide [7]: 50%
- % decrease MIC 50 [7]: 75%-87.5%
- % decrease MIC 90 [7]: 50%
- MIC 50 combined with Tricide [7]: 0.6 µg/mL
- MIC 90 combined with Tricide [7]: 4.8 µg/mL
- Summary % reduction in MIC 50 using Tricide [8]: 100%
- Summary % reduction in MIC 90 using Tricide [8]: 100%
- % decrease MIC 50 [8]: 100%
- % decrease MIC 90 [8]: 100%
- MIC 50 combined with Tricide [8]: 0 µg/mL
- MIC 90 combined with Tricide [8]: 0 µg/mL
- MIC50 [8]: > 19.2 µg/mL
- MIC90 [8]: > 19.2 µg/mL
- Summary % reduction in MIC 50 using Tricide [9]: 100%
- Summary % reduction in MIC 90 using Tricide [9]: 100%
- % decrease MIC 50 [9]: 100%
- % decrease MIC 90 [9]: 100%
- MIC 50 combined with Tricide [9]: 0 µg/mL
- MIC 90 combined with Tricide [9]: 0 µg/mL
- MIC50 [9]: 9.6 µg/mL
- MIC90 [9]: 19.2 µg/mL

Compound: CCC(C)n1ncn(-c2ccc(N3CCN(c4ccc(OCC5COC(Cn6cncn6)(c6ccc(Cl)cc6Cl)O5)cc4)CC3)cc2)c1=O (centres unmarked) [Itraconazole, itraconazole]
- % decrease MIC 50 ([1]; Tricide 200 ug/ml): 84%
- % decrease MIC 90 ([1]; Tricide 200 ug/ml): 90%
- MIC 50 combined with Tricide ([1]; Tricide 200 ug/ml): 0.1250 µg/mL
- MIC 90 combined with Tricide ([1]; Tricide 200 ug/ml): 0.25 µg/mL
- MIC50 [1]: 0.786 µg/mL
- MIC90 [1]: 2.43 µg/mL
- Summary % reduction in MIC 50 using Tricide [1]: 84%
- Summary % reduction in MIC 90 using Tricide [1]: 90%
- MIC50 ([2]; Candida albicans): 0.201 µg/mL
- MIC90 ([2]; Candida albicans): > 1 µg/mL
- % decrease MIC 50 ([2]; Candida albicans, Tricide […]): 100%
- % decrease MIC 90 ([2]; Candida albicans, Tricide […]): 100%
- MIC 50 combined with Tricide ([2]; Candida albicans, Tricide […]): 0 µg/mL
- Summary % reduction in MIC 50 using Tricide [2]: 100%
- Summary % reduction in MIC 90 using Tricide [2]: 100%
- Summary % reduction in MIC 50 using Tricide [3]: >99.9%-100%
- Summary % reduction in MIC 90 using Tricide [3]: >99.9%-100%
- % decrease MIC 50 ([3]; Tricide 540 ug/ml): >99.9-100% ^
- % decrease MIC 90 ([3]; Tricide 540 ug/ml): >99.9-100% ^
- MIC50 [3]: > 128 µg/mL
- MIC90 [3]: > 128 µg/mL
- Summary % reduction in MIC 50 using Tricide [4]: >99.9%-100%
- Summary % reduction in MIC 90 using Tricide [4]: 99.9%-100%
- % decrease MIC 50 [4, 10]: >99.9-100% ^
- % decrease MIC 90 [4, 10]: 99.9-100%^
- MIC 90 combined with Tricide [4, 10]: 0 to 0.05 µg/mL
- MIC50 ([4]; Fusarium sp. 1): > 128 µg/mL
- MIC90 ([4]; Fusarium sp. 1): > 128 µg/mL
- Summary % reduction in MIC 50 using Tricide [5]: 93.8%
- Summary % reduction in MIC 90 using Tricide [5]: 96.9%
- % decrease MIC 50 ([5]; Tricide 200 ug/ml): >93.8% ^
- % decrease MIC 90 ([5]; Tricide 200 ug/ml): 96.9%
- MIC 50 combined with Tricide ([5]; Tricide 200 ug/ml): <0.25 µg/mL
- MIC 90 combined with Tricide ([5]; Tricide 200 ug/ml): 0.5 µg/mL
- MIC50 [5]: 4 µg/mL
- MIC90 [5]: 16 µg/mL
- % decrease MIC 50 [6, 11]: 97-100% ^
- % decrease MIC 90 [6, 11]: 80-100% ^
- MIC 50 combined with Tricide [6, 11]: 0 to 0.0250 µg/mL
- MIC 90 combined with Tricide [6, 11]: 0 to 0.4 µg/mL
- Summary % reduction in MIC 50 using Tricide [6]: 97%-100%
- Summary % reduction in MIC 90 using Tricide [6]: 80%-100%
- MIC50 [6]: 0.778 µg/mL
- MIC90 [6]: 2 µg/mL
- MIC50 [7]: 0.0764 µg/mL
- MIC90 [7]: 0.5 µg/mL
- Summary % reduction in MIC 50 using Tricide [7]: 95%
- Summary % reduction in MIC 90 using Tricide [7]: 50%
- % decrease MIC 50 [7]: 95%
- % decrease MIC 90 [7]: 50%
- MIC 50 combined with Tricide [7]: 0.0039 µg/mL
- MIC 90 combined with Tricide [7]: 0.25 µg/mL
- Summary % reduction in MIC 50 using Tricide [8]: 100%
- Summary % reduction in MIC 90 using Tricide [8]: 100%
- % decrease MIC 50 [8]: 100%
- % decrease MIC 90 [8]: 100%
- MIC 50 combined with Tricide [8]: 0 µg/mL
- MIC 90 combined with Tricide [8]: 0 µg/mL
- MIC50 [8]: > 128 µg/mL
- MIC90 [8]: > 128 µg/mL
- Summary % reduction in MIC 50 using Tricide [9]: 100%
- Summary % reduction in MIC 90 using Tricide [9]: 100%
- % decrease MIC 50 [9]: 100%
- % decrease MIC 90 [9]: 100%
- MIC 50 combined with Tricide [9]: 0 µg/mL
- MIC 90 combined with Tricide [9]: 0 µg/mL
- MIC50 [9]: 0.5 µg/mL
- MIC90 [9]: 0.722 µg/mL
